Measured values: US5969017A, “Methods of treating or preventing cardiac arrhythmia” (Merck & Co., Inc., priority 1997, dated 1999)
Like-named read-outs stand apart in the source and are kept apart here.

Target: T1, IKur in human atrial myocytes (Homo sapiens, UniProt P22460)
T1 construct: Human myocytes were isolated from specimens of right atrial appendage obtained from patients; endogenous in cells; host or cells: human atrial myocytes from right atrial appendage of patients undergoing cardiopulmonary bypass
Experiment: Voltage clamp measurement of IKur block (rested state, use-dependent, rate-dependent) in human atrial myocytes
Type: cell-based
Settings: for inhibition at 0.03 µM / inhibition at 0.1 µM / Use-Dpdnt Ratio / inhibition at 1 µM / Rate-Dpdnt Ratio / inhibition at 0.3 µM: human atria; for Use-Dpdnt Ratio: 10th vs 1st pulse @ 1 Hz, <1 = use-dependent; for selective blockade of IKur (in words): relative to other cardiac K+ channels; for Rate-Dpdnt Ratio: 3 Hz vs 1 Hz, last pulse, <1 = rate-dependent
Source text: B. Measurement of IKur in Human Atrial Myocytes
Isolation of Human Atrial Myocytes:
Human myocytes were isolated from specimens of right atrial appendage obtained from patients undergoing cardiopulmonary bypass, using a modification of the procedure described by Fermini B, Wang Z, Duan D and Nattel S., "Differences in rate dependence of transient outward current in rabbit and human atrium" Am. J. Physiol. […] All tissues were collected in accordance with Temple University School of Medicine Institutional guidelines. […] Tissue samples were quickly immersed in cold (0-4° C.) cardioplegia solution containing (in mM/L): 50 KH2 PO4, 8 MgSO4, 10 NaHCO3, 5 adenosine, 25 taurine, 140 glucose, and 100 mannitol, pH 7.4 and bubbled with 100% O2. […] The tissue was gently agitated by continuous bubbling with 100% O2 for 5 min. […] The supernatant was removed after 40 min and discarded. The chunks were then incubated in a solution of the same ionic composition but supplemented with only collagenase and […]. Microscopic examination of the medium was performed every 10-20 min to determine the number and quality of isolated cells. When the yield appeared maximal, the tissue chunks were suspended in a modified Kraftbruhe solution containing (in mM/L): 25 KCl, 10 KH2 PO4, 25 taurine, 0.5 EGTA, 22 glucose, 55 glutamic acid, and 0.1% bovine albumin, pH 7.3 (22-24° C.) and gently triturated using a large bore Pasteur pipette. The supernatant was collected in a 50 ml centrifuge tube. […] Cells were used within 2-24 hr after isolation.
A small aliquot of the solution containing the isolated human atrial myocytes was placed in a 1-ml chamber mounted on the stage of an inverted microscope. Five minutes were allowed for cell adhesion to the bottom of the chamber. To record IKur, human atrial myocytes were superfused with a solution of the same ionic composition as that used for Kv1.5. An alternative external solution was sometimes used in which NaCl was replaced with NMDG (formal name: N-methyl-d-glucamine) to inhibit INa.
Currents were elicited by 150 ms depolarizing test pulses to +40 mV from a holding potential of -50 mV to inactivate Ito and INa. The amplitude of IKur was measured as the amplitude of the time-dependentcurrent at the end of the test pulse, relative to the holding current level. […] All experiments were performed at room temperature (22-24° C.).
C. Measurement of Use-Dependent and Rate-Dependent Block.
Pulses were applied in 10 second long trains delivered after 30 second rest intervals at frequencies of 1 Hz (10 pulses) or 3 Hz (30 pulses). Percent block of the current is defined as the % decrease in the current amplitude produced by an agent during a given pulse relative to the control current amplitude for that pulse. Rested-state block is the block of the current during the first pulse in a train following the 30 sec rest period. Use-dependent block is block that occurs to a progessively greater extent with each successive depolarization in a train or sequence of pulses or depolarizations delivered at a given rate or frequency. Thus, during a train of 10 depolarizations at frequency of 1 Hz, use-dependent block is assessed as the ratio of the amount of block for the 10th pulse relative to block for the 1st pulse (rested state block) of the train. Rate-dependent block is block that occurs to a greater extent or preferentially at faster rates of depolarization or heart rates. Thus, rate-dependent block is assessed as the ratio of the amount of block of the current during the last pulse of the 10 sec train at 3 Hz vs. 1 Hz. Consequently, ratios of less than one (<1) are indicative of use-dependentand rate-dependent block and the lower the ratio the greater the degree of use and rate dependence.

[1] = 30 nM, 1st pulse @ 1 Hz, +40 mV from -50 mV, read-out: Average % Block, Rested State, 1st pulse
[2] = 30 nM, 10th pulse @ 1 Hz, read-out: Average % Block, Use-Dpdnt, 10th pulse
[3] = 30 nM, 30th pulse @ 3 Hz, read-out: Average % Block, Rate-Dpdnt, 30th pulse
[4] = 100 nM, 1st pulse @ 1 Hz, read-out: Average % Block, Rested State, 1st pulse
[5] = 100 nM, 10th pulse @ 1 Hz, read-out: Average % Block, Use-Dpdnt, 10th pulse
[6] = 100 nM, 30th pulse @ 3 Hz, read-out: Average % Block, Rate-Dpdnt, 30th pulse

T1 sequence (P22460 whole entry): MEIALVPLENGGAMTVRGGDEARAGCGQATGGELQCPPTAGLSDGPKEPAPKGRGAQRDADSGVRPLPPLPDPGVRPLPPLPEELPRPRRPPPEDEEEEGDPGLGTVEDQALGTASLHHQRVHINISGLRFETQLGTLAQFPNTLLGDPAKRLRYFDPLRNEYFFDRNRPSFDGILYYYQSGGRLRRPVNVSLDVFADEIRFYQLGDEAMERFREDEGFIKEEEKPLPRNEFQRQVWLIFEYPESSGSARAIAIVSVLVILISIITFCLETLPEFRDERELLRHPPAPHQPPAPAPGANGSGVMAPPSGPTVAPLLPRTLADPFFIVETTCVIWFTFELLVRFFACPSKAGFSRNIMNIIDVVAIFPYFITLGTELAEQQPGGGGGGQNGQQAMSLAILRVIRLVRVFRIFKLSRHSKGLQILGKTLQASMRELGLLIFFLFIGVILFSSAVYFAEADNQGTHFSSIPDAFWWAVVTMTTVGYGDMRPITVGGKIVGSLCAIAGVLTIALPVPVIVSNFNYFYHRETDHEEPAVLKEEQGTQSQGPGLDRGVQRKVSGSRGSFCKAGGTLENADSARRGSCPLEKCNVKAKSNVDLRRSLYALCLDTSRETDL

inhibition at 0.03 µM [1] | inhibition at 0.03 µM [2] | inhibition at 0.03 µM [3] | inhibition at 0.1 µM [4] | inhibition at 0.1 µM [5] | inhibition at 0.1 µM [6] | use-dependent block of IKur (in words) (human atrial myocytes) | Use-Dpdnt Ratio (100 nM) | selective blockade of IKur (in words) (human atrial myocytes) | Rate-Dpdnt Ratio (100 nM) | Structure (SMILES) | also measured
21.9% | 33% | 48.4% | 35.6% | 59.7% | 75.7% | use-dependentblockade |  |  |  | CC1CCC(C(C)C)C(P(=O)(c2ccccc2)c2ccccc2)C1 (stereo not drawn) [A, (2-Isopropyl-5-methylcyclohexyl)diphenylphosphine oxide] | rate-dependent block of IKur (in words) (human atrial myocytes): strong rate-dependent profile; use-dependent block of IKur (in words) (human atrial myocytes, listed as (2-isopropyl-5-methylcyclohexyl)diphenyl-phosphine oxide): strong use-dependent profile
 |  |  | 61% | 68% |  | use-dependentblockade | 0.90 | selective blockade |  | COc1ccc(-n2nc(Sc3ccc(C)cc3)c(C)c(C#N)c2=O)cc1 [D] | inhibition at 1 µM (1000 nM, 1st pulse @ 1 Hz, read-out: Average % Block, Rested State, 1st pulse): 81.7%; inhibition at 1 µM (1000 nM, 10th pulse @ 1 Hz, read-out: Average % Block, Use-Dpdnt, 10th pulse): 80%; Use-Dpdnt Ratio (1000 nM): 1.02
 |  |  | 10.4% | 17.8% | 11.6% | use-dependentblockade | 0.58 | selective blockade | 1.53 | Cc1cc(C)c(CP(=O)(c2ccccc2)c2ccccc2)c(-c2ccc(F)c(C)c2)c1 [B, 2-(Diphenylphosphinylmethyl)-4'-fluoro-3,5,3'-trimethyl-biphenyl] | inhibition at 0.3 µM (300 nM, 1st pulse @ 1 Hz, read-out: Average % Block, Rested State, 1st pulse): 25.8%; Rate-Dpdnt Ratio (300 nM): 0.93; inhibition at 0.3 µM (300 nM, 10th pulse @ 1 Hz, read-out: Average % Block, Use-Dpdnt, 10th pulse): 31.3%; Use-Dpdnt Ratio (300 nM): 0.82; inhibition at 0.3 µM (300 nM, 30th pulse @ 3 Hz, read-out: Average % Block, Rate-Dpdnt, 30th pulse): 33.8%
35.7% | 43.2% | 42.9% | 63.8% | 67.9% | 60.1% | use-dependentblockade | 0.94 | selective blockade | 1.13 | COc1ccc(-n2nc(Sc3ccc(Cl)cc3)c(C)c(C#N)c2=O)cc1 [C, 6-(4-Chlorophenylthio)-2-(4-methoxyphenyl)-5-methyl-3-oxo-2,3-dihydropyridazine-4-carbonitrile] | Rate-Dpdnt Ratio (30 nM): 1.01; Use-Dpdnt Ratio (30 nM): 0.83; IC50 (first pulse of 10 at 1 Hz, +40 mV from -50 mV, read-out: Rested State IC50, IKur in Human Atrium): 130 nM
